Drawing on patent publication US10774082B2, “Quinazoline compound” (Astellas Pharma Inc., priority 2017, dated 2020), this text covers IC50 for 18 compounds.

SMILES strings stand for the structures. Read-outs that look alike come from different tables or passages of the source.

Assay [1] deals with T1, KRAS G12C/SOS/c-Raf complex (Homo sapiens, UniProt P01116, G12C).
T1 construct: Biotinylated AviTag-KRAS G12C (amino acid region 1-185, GDP)
As to the kind of experiment: KRAS G12C/SOS/c-Raf complex formation inhibitory action (TR-FRET). It is filed as biochemical. Particulars: one hour at room temperature, read-out: IC50 (KRAS G12C/SOS/c-Raf complex formation inhibition). On the procedure: Evaluation of KRAS G12C/SOS/c-Raf Complex Formation Inhibitory Action
Human Recombinant KRAS G12C, SOS, and c-Raf protein were used, and with respect to the complex formation of these proteins, an inhibitory action of the test compound was examined through a time-resolved fluorescence resonance energy transfer (TR-FRET) method.
Biotinylated AviTag-KRAS G12C (amino acid region 1-185, GDP) (2.5 μL; 400 nM) dissolved in assay buffer (50 mM HEPES, 150 mM NaCl, 5 mM MgCl2, 0.05% Tween 20, pH 7.4) and test compound were added in a volume of 2.5 μL from 4,000 nM to 4 nM were added to 384 well plate (Corning Inc). Son of Sevenless (SOS) (amino acid region 564-1049, 2.5 μL; 1.3 μM) and c-Raf (amino acid region 51-131) GST containing GTP (Sigma-Aldrich Co. LLC) (2.5 μL; 130 nM and 4 μM of each) were added to the above mixture, and the resultant was left to stand for one hour at room temperature. Thereafter, a mixed solution (10 μL) of LANCE Ulight-anti-GST (120 nM, PerkinElmer. Co., Ltd) and LANCE Eu-W1024 labeled Streptoavidin (100 ng/mL, PerkinElmer. Co., Ltd) was added, and a fluorescence intensity on the condition of wavelength of 620 nm and 665 nm was measured by using EnVision 2103 Multilabel Reader (PerkinElmer Co., Ltd.) under the condition of excitation wavelength of 337 nm. […] In Tables, Ex represents Example numbers described later. In addition, in Tables, Compound C represents a test compound of Example I-59 disclosed in Pamphlet of International Publication No. WO 2016/164675, and the structures of Reference Example 1 and Reference Example 2 are indicated in Table 168 described below (the same shall apply hereinafter).
(TR-FRET usually uses a lanthanide donor and a delayed reading to cut background.)

The test system of assay [2] is ERK phosphorylation (Thr 202/Tyr 204) in NCI-H1373 cells. As to the kind of experiment: ERK phosphorylation inhibitory action in NCI-H1373 (Cell ELISA). The note with it: Homo sapiens, NCI-H1373, 2 h, read-out: IC50 (ERK phosphorylation inhibition). It is filed as cell-based, Human. As for the experimental part: Evaluation of ERK Phosphorylation Inhibitory Action with Respect to Human KRAS G12C Mutation Positive Non-Small Cell Lung Cancer Strain NCI-H1373
The ERK phosphorylation inhibitory action by the test compound was evaluated by measuring phosphorylation of 202th threonine (Thr 202) and 204th tyrosine (Tyr 204) of ERK on the downstream of the KRAS signal by Cell ELISA.
NCI-H1373 cells (ATCC, CRL-5866) were seeded in 384 well plates (Greiner bio-one) at 36 μL/well each so as to be 2×10^4 cell per well. Cell culture was performed under the conditions of temperature of 37° C. in the presence of 5% CO2 by using RPMI 1640 medium (Sigma-Aldrich Co. LLC) containing 10% fetal bovine serum (GE Life Sciences).
The next day, the test compounds (six points in a range of final concentration 1,000 nM to 0.3 nM), final concentration 1 μM of Trametinib (GlaxoSmithKline Inc.; MEK inhibitor) as a positive control, and DMSO which is a solvent of the test compound as a negative control were diluted 100-fold with fresh medium, 4 μL each was added to each well, and then cultured for 2 hours. Immediately after culturing, 30 μL of 30% glyoxal solution (Wako: 40% glyoxal diluted with Phosphate Buffered Saline (PBS; Wako)) was added to each well, and the cells were left to stand at room temperature for one hour to be fixed. Thereafter, the supernatant was removed by centrifuging the plate (110×g for 7 seconds, unless otherwise stated below under the same conditions), and 20 μL of PBS containing 0.1% Triton X-100 (Amersham Biosciences Corp.) was added to each well. After being left to stand at room temperature for 10 minutes, the supernatant was removed by centrifugation, and the same operation was repeated. Next, 20 μL of PBS containing 0.5% SDS (Invitrogen) was added to each well, and the mixture was left to stand at room temperature for 30 minutes, and then centrifuged to remove the supernatant. Subsequently, 20 μL of a blocking solution (ODYSSEY Blocking Buffer; LI-COR Biosciences) was added to each well, and left to stand at room temperature for one hour. The supernatant was removed by centrifugation, and 10 μL of a blocking solution prepared by diluting ERK (Thr 202/Tyr 204) of a phosphorylation antibody (Cell Signaling Technology, Inc.) as a primary antibody to be ½, 500 amount with respect to a stock solution was added to each well and was left to stand at 4° C. for overnight.
The next day, a reaction liquid is removed by centrifuging the plate, 20 μL of 0.05% Tween-20-containing PBS (Thermo Scientific; 20×PBS Tween-20 diluted 20-fold with ion exchanged water) was added to each well, and each well was washed by removing the supernatant by centrifugation. Washing was performed three times in total. After washing, 10 μL of a blocking solution prepared by diluting IRDye 800CW Goat anti-Rabbit IgG (LI-COR Biosciences) as a secondary antibody to be 1/1,000 amount with respect to a stock solution was added to each well and was left to stand at room temperature for one hour. The reaction liquid was removed by centrifuging the plate, and each well was washed three times with 0.05% Tween-20-containing PBS in the same manner as after primary antibody reaction. The centrifugation after the third wash was 171×g for 17 seconds. After removal of the cleaning solution, the plate was left to air dry at room temperature for three hours or more and the fluorescent signal at 800 nm was measured by Aerius (LI-COR Biosciences).
When a signal value at the time of adding DMSO was set as 0% inhibition, and a signal value at the time of adding 1 μM of Trametinib was set as 100% inhibition, a value of 50% inhibition (IC50) was calculated through Sigmoid-Emax model nonlinear regression analysis.
For orientation: An ELISA detects its analyte on a solid surface through an enzyme-linked reagent.

For the next assay, the system named is NCI-H1373 cells. The assay can be described thus: Anchorage-independent cell proliferation inhibitory action, NCI-H1373 spheroid three-dimensional culture. It is filed as cell-based, Human. Particulars: Homo sapiens, NCI-H1373, 144 h, read-out: IC50 (anchorage-independent cell proliferation inhibition). On the procedure: Evaluation of Anchorage-Independent Cell Proliferation Inhibitory Action with Respect to Human KRAS G12C Mutation Positive Non-Small Cell Lung Cancer Strain NCI-H1373
An anchorage-independent cell proliferation inhibitory action by the test compound was evaluated by a spheroid three-dimensional culture.
NCI-H1373 cells were seeded in cell low adsorption U bottom 384 well plates (Prime Surface: Sumitomo Bakelite Co., Ltd.) at 36 μL/well each so as to be 5×10^2 cell per well. The cell culture was performed under the same conditions as Test example 2.
The next day, the test compounds (six points in a range of final concentration 1,000 nM to 0.3 nM) and DMSO which is a solvent of the test compound as a negative control were diluted 100-fold with fresh medium, 4 μL each was added to each well. After culturing at 37° C. in the presence of 5% CO2 for six days, 20 μL of CellTiter Glo or to CellTiter Glo 2.0 (Promega Corporation) was added to each well. After stirring for one hour at room temperature using a plate mixer (FINEPCR), an emission signal was measured with ARVO X3 (PerkinElmer Co., Ltd.).
When a signal value in a DMSO treatment was set as 0% inhibition, and a signal value in cell-free medium only was set as 100% inhibition, a value of 50% inhibition (IC50) was calculated through Sigmoid-Emax model nonlinear regression analysis.

Setting [3] is: NCI-H1373 cells, cultured for 2 hours, 100% = 1 μM Trametinib.
[4] abbreviates: NCI-H1373 spheroid, six days, CellTiter Glo.

T1 sequence (P01116 1-185 isoform P01116-2 G12C, one chain of several): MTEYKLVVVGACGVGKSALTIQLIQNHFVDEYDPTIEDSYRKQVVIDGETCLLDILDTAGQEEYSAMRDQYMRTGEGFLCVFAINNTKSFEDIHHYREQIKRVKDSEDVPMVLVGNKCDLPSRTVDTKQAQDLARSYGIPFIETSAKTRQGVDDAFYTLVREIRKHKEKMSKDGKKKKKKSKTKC

Regarding `C=CC(=O)N1CC2(CCN(c3nc(OC4CCN(C)CC4)nc4c(OCC(F)F)c(-c5c(C)ccc6[nH]ncc56)c(C=C)cc34)CC2)C1` [Ex 1], the IC50 was 34 nM in assay [1], 6.4 nM in assay [2] (setting [3]) and 12 nM in the assay on NCI-H1373 cells (setting [4]).
Take `C=CC(=O)N1CC2(CCN(c3nc(OC4CCN(CCOC)CC4)nc4c(OCC(F)(F)F)c(-c5c(C)ccc6[nH]ncc56)c(C=C)cc34)CC2)C1` [Ex 36]: in assay [1], the IC50 came out at 21 nM.
Still for that read-out and setting: the result for `C=CC(=O)N1CC2(CCN(c3nc(OC4CCN(CCCOC)CC4)nc4c(OCC(F)(F)F)c(-c5c(C)ccc6[nH]ncc56)c(C5CC5)cc34)CC2)C1` [Ex 38] reads 15 nM.
Turning to `C=CC(=O)N1CC2(CCN(c3nc(OC4CCN(CCOCC5CC5)CC4)nc4c(OCC(F)(F)F)c(-c5c(C)ccc6[nH]ncc56)c(C=C)cc34)CC2)C1` [Ex 41], the figures for the IC50 (in assay [1]; in assay [2] (setting [3]); with NCI-H1373 cells (setting [4])) were 42 nM, 6.2 nM and 14 nM, respectively.
`C=CC(=O)N1CC2(CCN(c3nc(SC4CCN(C)CC4)nc4c(OCC(F)(F)F)c(-c5c(C)ccc6[nH]ncc56)c(C=C)cc34)CC2)C1` [Ex 51]: the figures for the IC50 (in assay [1]; in assay [2] (setting [3]); with NCI-H1373 cells (setting [4])) were 59 nM, 8.9 nM and 24 nM, respectively.
For the compound `COCCN1CCC(Oc2nc(N3CCC4(CC3)CN(C(=O)/C=C/C(F)(F)F)C4)c3cc(C4CC4)c(-c4c(C)ccc5[nH]ncc45)c(OCC(F)F)c3n2)CC1` [Ex 82], the IC50 in assay [1] came to 43 nM; in assay [2] (setting [3]), 16 nM; with NCI-H1373 cells (setting [4]), 62 nM.
Consider `C=CC(=O)N1CC2(CCN(c3nc(OC4CCN(CC)CC4)nc4c(OCC)c(-c5c(C)c(F)cc6[nH]ncc56)c(C=C)cc34)CC2)C1` [Example 8], for which the IC50 was 32 nM in assay [1], 2.6 nM in assay [2] (setting [3]) and 3.5 nM with NCI-H1373 cells (setting [4]).
On the same counts, the results for `C=CC(=O)N1CC2(CCN(c3nc(OC4CCN(CC)CC4)nc4c(OCC(F)(F)F)c(-c5c(C)ccc6[nH]ncc56)c(C=C)cc34)CC2)C1` [Example 9] are 55 nM, 3.8 nM and 5.5 nM.
In the same order, the values of `C=CC(=O)N1CC2(CCN(c3nc(OC4CCN(CC)CC4)nc4c(OCC(F)F)c(-c5c(C)ccc6[nH]ncc56)c(C=C)cc34)CC2)C1` [Example 10] are 34 nM, 5.7 nM and 10 nM.
For the compound `C=CC(=O)N1CC2(CCN(c3nc(OC4CCN(CC)CC4)nc4c(OC5CC(F)(F)C5)c(-c5c(C)ccc6[nH]ncc56)c(C=C)cc34)CC2)C1` [Example 11], the IC50 was found to be 38 nM in assay [1], 10 nM in assay [2] (setting [3]) and 12 nM with NCI-H1373 cells (setting [4]).
Regarding `C=CC(=O)N1CC2(CCN(c3nc(OC4CCN(C(C)C)CC4)nc4c(OCC)c(-c5c(C)ccc6[nH]ncc56)c(C=C)cc34)CC2)C1` [Example 12], the IC50 in assay [1] is 23 nM; in assay [2] it was 6.7 nM; with NCI-H1373 cells, 11 nM.
In the same order, the values of `C=CC(=O)N1CC2(CCN(c3nc(OC4CCN(CCOC)CC4)nc4c(OCC)c(-c5c(C)ccc6[nH]ncc56)c(C=C)cc34)CC2)C1` [Example 13] are 37 nM, 11 nM and 13 nM.
In the same order, the values of `C=CC(=O)N1CC2(CCN(c3nc(OC[C@@H]4CCCN4C)nc4c(OCC(F)F)c(-c5c(C)ccc6[nH]ncc56)c(C=C)cc34)CC2)C1` [Example 14] are 50 nM, 6.1 nM and 8.8 nM.
In the same order, the values of `C=CC(=O)N1CC2(CCN(c3nc(OC4CCN(C)CC4)nc4c(OC5CCC5)c(-c5c(C)ccc6[nH]ncc56)c(C=C)cc34)CC2)C1` [Example 17] are 34 nM, 4.9 nM and 12 nM.
`C=CC(=O)N1CC2(CCN(c3nc(OC4CCN(CC)CC4)nc4c(OCC)c(-c5c(C)ccc6[nH]ncc56)c(C5CC5)cc34)CC2)C1` [Example 18]: the IC50 in assay [1] worked out at 46 nM; in assay [2] (setting [3]), 5.9 nM; in the assay on NCI-H1373 cells (setting [4]), 7.3 nM.
Regarding `C=CC(=O)N1CC2(CCN(c3nc(OC4CCN(CC)CC4)nc4c(OC5CCC5)c(-c5c(C)ccc6[nH]ncc56)c(C5CC5)cc34)CC2)C1` [Example 19], the IC50 in assay [1] amounted to 48 nM; in assay [2] (setting [3]), 4.5 nM; in the assay with NCI-H1373 cells (setting [4]) it was 15 nM.
On to `C=CC(=O)N1CC2(CCN(c3nc(OC4CCN(CC)CC4)nc4c(OC5CCC5)c(-c5c(C)ccc6[nH]ncc56)c(C=C)cc34)CC2)C1` [Example 20], for which the IC50 turned out to be 32 nM in assay [1], 6.5 nM in assay [2] (setting [3]) and 11 nM in the assay with NCI-H1373 cells (setting [4]).
On the same counts, the results for `C=CC(=O)N1CC2(CCN(c3nc(OC4CCN(CC)CC4)nc4c(OCC)c(-c5c(Cl)ccc6[nH]ncc56)c(C=C)cc34)CC2)C1` [Example 21] are 65 nM, 14 nM and 27 nM.
